According to PubChem BioAssay AID1996:
In brackets after ≈: the same amount, converted by molar mass.

details: buffer; pH 7.4; 200.0 µM

Compound | solubility kinetic
Cc1ccc(NC(=O)N2CCCc3ccccc32)cc1 | 36.2 µg/mL (≈ 136 µM)
CC(C)c1ccc(CNc2ncccn2)cc1.O=C(O)C(=O)O | 31.3 µg/mL
O=C(CS(=O)(=O)c1c[nH]c2ccccc12)N1CCCCCC1 | > 48.1 µg/mL
CCc1c(C)sc(NC(=S)Nc2nc(C)cc(C)n2)c1C(=O)OC | < 0.2 µg/mL
O=C(CN1C(=O)C2CCCCC2C1=O)OCC(=O)c1ccc(F)cc1 (stereo not given) | 49.5 µg/mL (≈ 143 µM)
Cc1ccc2ncnc(Oc3ncccc3NC(=O)C(C)(C)C)c2c1 | > 50.5 µg/mL
CCNC(=O)COC(=O)/C=C/c1cccc(F)c1 | > 37.7 µg/mL
C=CCn1c(C)cc(C(=O)COc2ccc(N(C)S(=O)(=O)c3ccc(NC(C)=O)cc3)cc2)c1C | 9.3 µg/mL (≈ 18.8 µM)
COC(=O)C(C)NC(=O)COc1ccc2ccccc2c1 (stereo not given) | > 43.1 µg/mL
CC(C)OCc1c(C(=O)Nc2nccs2)oc2ccccc12 | 2.6 µg/mL (≈ 8.22 µM)
Cc1ccc[n+](CC(=O)N2CCCCC2)c1C.[Br-] | > 47 µg/mL
COc1cccc(NCCC(=O)c2cccc([N+](=O)[O-])c2)c1 | 12.4 µg/mL (≈ 41.3 µM)
COc1cc(C)ccc1OCC(=O)OCC(=O)c1ccc[nH]1 | > 45.5 µg/mL
COc1ccccc1C(c1c(O)nc(SC)[nH]c1=O)c1c(O)nc(SC)[nH]c1=O | > 65.2 µg/mL
Cc1cc(-c2ccccc2)nc(SCc2ccc(C(=O)O)cc2)n1 | 43.5 µg/mL (≈ 129 µM)
O=C(Nc1sc2c(c1C(=O)NCCCO)CCCC2)c1ccccc1 | 1.6 µg/mL (≈ 4.46 µM)
COc1ccc(NS(=O)(=O)c2cc(NC(=O)c3cncc(Br)c3)ccc2OC)cc1 | 21.9 µg/mL (≈ 44.5 µM)
CN(CC(=O)Nc1cccc(F)c1)C(=O)C1=COCCO1 | > 44.1 µg/mL
COc1ccc(NS(=O)(=O)c2cccc(NC(=O)COc3ccccc3[N+](=O)[O-])c2)cc1 | 2.9 µg/mL (≈ 6.34 µM)
O=C(CC1CCCCC1)NCc1ccco1 | > 33.2 µg/mL
COc1ccccc1Nc1nc(NCc2ccco2)nc(N)c1[N+](=O)[O-] | < 0.1 µg/mL
COc1ccc(Cl)cc1/C=C/c1ccc2cccc(O)c2n1 | 0.8 µg/mL (≈ 2.57 µM)
CN(C)c1ccc2nsnc2c1[N+](=O)[O-] | 33.4 µg/mL (≈ 149 µM)
COc1ccccc1OCc1csc(N)n1 | > 35.4 µg/mL

Compound | solubility kinetic
O=C(c1ccc([N+](=O)[O-])cc1[N+](=O)[O-])n1cnc2ccccc21 | 22.9 µg/mL (≈ 73.3 µM)
NC1=NC(=O)C(Cc2ccccc2)S1 (stereo not given) | > 30.9 µg/mL
CCOc1ccc2nc(SCC(=O)Nc3cc(C)on3)c(C)cc2c1 | < 0.3 µg/mL
COc1ccc(Cc2c([O-])[nH]c(=O)[nH]c2=O)c(OC)c1.[NH4+] | 43.1 µg/mL
C/C(=N\NC1=NCCN1)c1ccc(N)c([N+](=O)[O-])c1 | > 39.3 µg/mL
O=C(NC1CCCC1)C1CCN(C(=O)c2ccccc2Cl)CC1 | > 50.2 µg/mL
CCSc1ccc(/C(N)=N/OC(=O)c2cccs2)cn1 | 0.3 µg/mL (≈ 0.976 µM)
COc1ccc(C(=O)NCC(=O)N2CCc3ccccc3C2)cc1 | > 48.7 µg/mL
NC(=S)Nc1cc(Cl)ccc1Cl | 30.2 µg/mL (≈ 137 µM)
COc1ccc(CC(C)CC(=O)Nc2ccc(OC)cc2)cc1 (stereo not given) | 4.6 µg/mL (≈ 14.7 µM)
Cc1cccc(N2CC(O)(c3cccs3)[N+]3=C2CCCCC3)c1.[Br-] (stereo not given) | > 61.1 µg/mL
CC(=O)Nc1cccc(-c2nc3ccccc3o2)c1 | 6.3 µg/mL (≈ 25 µM)
CCn1cc(C=C2C(=O)N(C)C(=O)N(C)C2=O)c2ccccc21 | 1 µg/mL (≈ 3.21 µM)
CC(C)(C#CC(O)(c1ccccc1)c1ccccc1)N1CCCC1.Cl | > 53.4 µg/mL
CC(=O)c1cccc(NC(=O)COC(=O)c2ccccc2C)c1 | 4.9 µg/mL (≈ 15.7 µM)
O=C(CSCc1ccc(Cl)cc1)Nc1cccc(C(=O)O)c1 | > 50.4 µg/mL
Cc1ccc(NC(=S)c2ccc3ccccc3n2)c(C)c1 | < 0.3 µg/mL
Cc1noc(COc2ccccc2OCC(N)=O)n1 | > 39.5 µg/mL
COc1ccc(OC)c(NC(=O)COC(=O)/C=C/c2ccco2)c1 | 10.4 µg/mL (≈ 31.4 µM)
Cc1ccc(OCC(=O)Nc2ccncc2)c(C)c1 | 32.1 µg/mL (≈ 125 µM)
CNC(=O)c1ncoc1-c1ccc(Cl)cc1 | 33.8 µg/mL (≈ 143 µM)
COc1ccc(OC)c(N2C(=O)CC(NNC(=O)c3ccc4c(c3)OCO4)C2=O)c1 (stereo not given) | > 62 µg/mL
OC1(CC#CCN2CCCCC2)c2ccccc2-c2ccccc21 | 42.2 µg/mL (≈ 133 µM)
Cc1c(C)n(CCCN(C)C)c2ncnc(NCc3ccccc3)c12 | > 50.6 µg/mL

Compound | solubility kinetic
O=C(Nc1ccccc1)c1cccc(=O)o1 | > 32.3 µg/mL
CC1Cc2cc(/C=C3/SC(=S)N(C)C3=O)ccc2O1 (stereo not given) | < 0.6 µg/mL
NC(=O)CN1CCN(Cc2ccc3c(c2)OCO3)CC1 | > 41.6 µg/mL
COc1ccc(Nc2cc(C)c3cc([N+](=O)[O-])ccc3n2)cc1 | < 0.2 µg/mL
O=C(Cc1ccccc1)N1CCC(c2ccccc2)C1 (stereo not given) | 38.6 µg/mL (≈ 145 µM)
O=C(CCCn1c(=O)oc2ccccc21)Nc1ccccc1 | 42.2 µg/mL (≈ 142 µM)
Cc1ccc(-c2nc(-c3ccncc3)no2)cc1Cl | < 0.2 µg/mL
COc1ccccc1CNC(=O)C(Cc1ccccc1)NC(=O)c1ccccc1 (stereo not given) | 12.8 µg/mL (≈ 33 µM)
O=C(CCSCc1ccccc1F)NCCc1ccccc1 | 17.8 µg/mL (≈ 56.1 µM)
CC(C)(C)OC(=O)NCCCCCO | > 30.5 µg/mL
N#C/C(=C\c1ccc(O)cc1)C(=O)N1CCCC1 | 30.1 µg/mL (≈ 124 µM)
COc1ccc(NC(=O)CCc2ccc(OC)c(OC)c2)cn1 | > 47.5 µg/mL
O=C(Cc1ccc(F)cc1)Nc1nc(-c2ccc(F)c(F)c2)cs1 | 1.4 µg/mL (≈ 4.02 µM)
COC(=O)[C@@H](NC(=O)N1CCC(Cc2ccccc2)CC1)C(C)C | > 49.9 µg/mL
O=C(CCNC(=O)c1ccc([N+](=O)[O-])cc1)NCc1ccco1 | > 47.6 µg/mL
COc1ccc2c(c1)c(C(C)=O)c(C)n2CCc1ccc(OC)c(OC)c1 | 50.8 µg/mL (≈ 138 µM)
CCCS(=O)(=O)N1CCCC(C(=O)Oc2ccc(C)c(C)c2)C1 (stereo not given) | < 0.7 µg/mL
CC(NC(=O)COC(=O)c1c[nH]c2ccccc12)c1ccccc1 (stereo not given) | 46.2 µg/mL (≈ 143 µM)
COc1ccc2nc(SC)cc(C)c2c1 | 3.7 µg/mL (≈ 16.9 µM)
CC1(C)CC(NC(=O)c2ccccc2)CC(C)(C)N1 | > 39.1 µg/mL
O=C(NCCCCNC(=O)c1ccc(F)cc1)c1ccc(F)cc1 | 3.9 µg/mL (≈ 11.7 µM)
CCOc1ccc(-c2noc(-c3cccnc3)n2)cc1OCC | 2.2 µg/mL (≈ 7.07 µM)
O=C(COC(=O)/C=C/c1ccc(S(=O)(=O)N2CCOCC2)cc1)Nc1ccc(F)c(F)c1F | 11.6 µg/mL (≈ 23.9 µM)
Nc1nccc(/C=C/c2ccc(Cl)cc2)n1 | 3.2 µg/mL (≈ 13.8 µM)

Compound | solubility kinetic
COc1cccc(NC(=O)c2ccccc2Oc2ccccc2)c1 | 6.4 µg/mL (≈ 20 µM)
CC(=O)c1c(C)[nH]c(C(=O)COC(=O)c2cccs2)c1C | 6.9 µg/mL (≈ 22.6 µM)
COc1ccccc1C(=O)N=c1sc2c(C)ccc(OC)c2n1C | 1.8 µg/mL (≈ 5.26 µM)
CC(C)(C)c1ccc(OCC(=O)Nc2ccncc2)cc1 | 3.7 µg/mL (≈ 13 µM)
CCOn1c(=O)c(=O)n(OC)c2ccccc21 | > 35.4 µg/mL
CCC1=C([N+](=O)[O-])C(c2ccc3c(c2)OCO3)NC(=O)N1 (stereo not given) | > 43.7 µg/mL
CCN(CC)CCC(=O)c1ccc(F)cc1.Cl | > 39 µg/mL
O=C(NCCc1nnc2ccccn12)c1cccs1 | > 40.8 µg/mL
CCCN(CCC)S(=O)(=O)c1nc2nc(C)cc(C)n2n1 | > 46.7 µg/mL
CCn1c(=NC(=O)COc2ccccc2)sc2cccc(F)c21 | < 0.4 µg/mL
Cc1ccc(S(=O)(=O)/N=C(/Nc2cccc(O)c2)c2ccccc2)cc1 | > 55 µg/mL
COc1cccc(NC(=S)N2CCC(c3ccc(C)cc3)C2)c1 (stereo not given) | 6.9 µg/mL (≈ 21.1 µM)
CC1(C)C(C(=O)N2CCN(c3ccc(Cl)cc3)CC2)C1(C)C | 0.5 µg/mL (≈ 1.56 µM)
CCCNC(=O)c1ccc2c(c1)S(=O)(=O)c1ccccc1C2=O | 7.9 µg/mL (≈ 24 µM)
Cc1ccc2cccc(OCc3ccc(F)cc3)c2n1 | 6 µg/mL (≈ 22.4 µM)
COc1ccc(Cn2c(C)nc3ccc([N+](=O)[O-])cc3c2=O)cc1 | 3.8 µg/mL (≈ 11.7 µM)
Cc1cc(C)cc(NC(=O)CCN2CCCC2)c1 | 35.3 µg/mL (≈ 143 µM)
N#Cc1c(N)nc2c(c1-c1ccc(F)cc1)c(=O)nc1sccn12 | 5.7 µg/mL (≈ 16.9 µM)
O=C(OCC(=O)c1ccc(Cl)s1)c1cncc(Br)c1 | 17.5 µg/mL (≈ 48.5 µM)
Cc1ccc(O)c(NC(=O)c2cc(C)no2)c1 | > 34.8 µg/mL
O=C(/C=C/c1ccc(Cl)c(Cl)c1)NCCCn1ccnc1 | 38.8 µg/mL (≈ 120 µM)
O=C(NNC(=O)c1ccco1)c1csc(N2CCOCC2)n1 | > 48.4 µg/mL
CC1(C)CC(NC(=O)c2cc(Cl)ccc2Cl)CC(C)(C)N1 | > 49.4 µg/mL
O=C(Nc1cccnc1)Nc1cccc([N+](=O)[O-])c1 | 10 µg/mL (≈ 38.7 µM)

Compound | solubility kinetic
CN(CC(=O)NC(=O)Nc1ccccc1F)Cc1ccccc1F | 2.7 µg/mL (≈ 8.1 µM)
CC(C)(C)NS(=O)(=O)c1ccc(NC(=O)C2CCCCC2)cc1 | 11.5 µg/mL (≈ 34 µM)
Cc1ccc(SCC(=O)N2CCN(S(=O)(=O)c3cccs3)CC2)cc1 | 18.4 µg/mL (≈ 46.4 µM)
CCC(=O)Nc1nc2ccc([N+](=O)[O-])cc2s1 | 0.9 µg/mL (≈ 3.58 µM)
CCCCc1nc2cc(Cl)ccc2o1 | < 0.4 µg/mL
CN(CC(=O)Nc1c(Cl)cccc1Cl)C(=O)Cc1ccsc1 | > 53.6 µg/mL
CCC(=O)Nc1cccc(-c2cn3cccc(C)c3n2)c1 | 39.8 µg/mL (≈ 142 µM)
Cc1ccc(Sc2cc(C)nc(-c3ccccn3)n2)cc1 | 36.8 µg/mL (≈ 125 µM)
Cl.Clc1ccc2sc(C3CCNCC3)nc2c1 | 43.3 µg/mL
CC(=O)Oc1ccc(C(=O)N2c3ccccc3NC(=O)C2C)cc1 (stereo not given) | > 48.7 µg/mL
COc1cccc(NC(=O)N2CCc3ccccc3C2)c1 | > 42.4 µg/mL
Cc1cc(NC(=O)c2ccc(Cl)cc2Cl)no1 | 3.5 µg/mL (≈ 12.9 µM)
CN=C(NC1CCCCC1)c1ccc([N+](=O)[O-])cc1 | > 39.2 µg/mL
COc1cc(OC)c(C(=O)Nc2ccncc2)cc1OC | 42.6 µg/mL (≈ 148 µM)
O=C(N/N=C\c1ccc(O)c([N+](=O)[O-])c1)C1COc2ccccc2O1 (stereo not given) | > 51.5 µg/mL
C=CCNC(=O)c1ccccc1SCc1c(C)noc1C | > 45.4 µg/mL
Cc1cc(CSc2nc(C)cc(=O)[nH]2)c2ncccc2c1 | 8.7 µg/mL (≈ 29.3 µM)
CCS(=O)(=O)c1ccc(C(=O)NC)c(Cl)c1Cl | > 44.4 µg/mL
O=C(Nc1ccccc1-c1ccccc1)c1ccccc1 | > 41 µg/mL
O=C(Cc1cccs1)Nc1ccccc1 | > 32.6 µg/mL
CNC(=O)c1cc(C(=O)c2ccc(Cl)cc2)c(Br)[nH]1 | 1.7 µg/mL (≈ 4.98 µM)
Cc1ccccc1-c1nnc(SCCC(=O)N2CCOCC2)o1 | > 50 µg/mL
Cc1ccsc1CN(C)C(=O)c1ccc(Oc2ccccc2)cc1 | 3.3 µg/mL (≈ 9.78 µM)
CN(C)S(=O)(=O)Nc1ccccc1F | 30.2 µg/mL (≈ 138 µM)
